pIC50: −log10 of the molar value.
Molecular target: T1, Aldehyde oxidase 1 (Mus musculus, UniProt O54754)
T1 sequence (O54754 whole entry): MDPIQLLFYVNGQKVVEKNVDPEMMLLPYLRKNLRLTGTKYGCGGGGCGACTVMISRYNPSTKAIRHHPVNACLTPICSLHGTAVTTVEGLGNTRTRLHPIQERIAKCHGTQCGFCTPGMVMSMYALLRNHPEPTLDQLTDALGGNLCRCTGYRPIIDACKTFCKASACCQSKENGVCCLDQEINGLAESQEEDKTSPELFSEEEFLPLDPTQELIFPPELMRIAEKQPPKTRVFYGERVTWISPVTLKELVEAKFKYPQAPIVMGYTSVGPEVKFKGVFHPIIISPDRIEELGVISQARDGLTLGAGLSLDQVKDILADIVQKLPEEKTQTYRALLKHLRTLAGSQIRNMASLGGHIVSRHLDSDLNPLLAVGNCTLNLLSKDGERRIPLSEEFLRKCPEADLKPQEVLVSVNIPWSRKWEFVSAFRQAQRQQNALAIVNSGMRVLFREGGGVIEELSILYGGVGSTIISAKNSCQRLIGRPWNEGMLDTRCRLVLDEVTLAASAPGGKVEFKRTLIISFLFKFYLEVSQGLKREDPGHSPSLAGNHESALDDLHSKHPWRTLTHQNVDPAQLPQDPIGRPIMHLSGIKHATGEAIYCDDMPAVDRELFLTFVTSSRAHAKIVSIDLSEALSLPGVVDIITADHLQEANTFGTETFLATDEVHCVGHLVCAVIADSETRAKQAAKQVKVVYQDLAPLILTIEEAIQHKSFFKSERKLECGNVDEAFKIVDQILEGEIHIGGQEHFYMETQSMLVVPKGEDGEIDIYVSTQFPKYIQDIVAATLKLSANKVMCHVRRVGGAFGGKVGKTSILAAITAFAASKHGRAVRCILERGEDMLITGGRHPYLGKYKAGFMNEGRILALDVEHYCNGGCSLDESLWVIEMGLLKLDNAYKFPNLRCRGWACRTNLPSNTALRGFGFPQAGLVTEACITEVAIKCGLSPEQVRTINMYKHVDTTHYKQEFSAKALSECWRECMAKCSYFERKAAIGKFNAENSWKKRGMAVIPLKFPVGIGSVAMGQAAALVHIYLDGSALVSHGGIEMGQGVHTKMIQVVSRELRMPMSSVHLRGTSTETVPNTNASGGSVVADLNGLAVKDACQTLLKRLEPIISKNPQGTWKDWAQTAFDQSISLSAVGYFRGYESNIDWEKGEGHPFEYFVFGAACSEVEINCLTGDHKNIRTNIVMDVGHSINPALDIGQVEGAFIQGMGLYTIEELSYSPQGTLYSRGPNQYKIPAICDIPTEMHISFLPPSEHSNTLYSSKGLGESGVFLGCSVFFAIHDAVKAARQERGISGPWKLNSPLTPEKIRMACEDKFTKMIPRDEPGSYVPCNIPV
Assay: Inhibition of mouse aldehyde oxidase

pIC50: 5.21
SMILES: OCCN1CCN(CCCN2c3ccccc3Sc3ccc(Cl)cc32)CC1 [PERPHENAZINE]
